Reference: patent US20110195049A1, “COMPOSITIONS AND METHODS FOR TREATING MULTIPLE SCLEROSIS” (BIOVISTA, INC., priority 2008, published 2011)
Structures can show the parent of a compound that is named as a salt.

Assays:
[1] = system: acute EAE murine model of MS; assay: Acute EAE murine model (MOG-induced), clinical score over 35 days; type: in vivo, female C57BL/6J mice
NMDA receptor = conditions: dose producing the anti-NMDA effect; cited from earlier work
[2] = disturbance of coordination of movement and a sedative effect; cited from earlier work

SMILES | activity (average clinical score) compared to the vehicle-only treatment group (1F) ([1]; 1.0 mg/kg IP once daily from study day 0, 35-day study, n = 10) | activity (average clinical score) compared to the vehicle-only treatment group (1F) ([1]; 10.0 mg/kg IP once daily (group 5F), at the end of the study) | activity (average clinical score) compared to the vehicle-only treatment group (1F) ([1]; 10.0 mg/kg IP once daily (group 5F), intermediate time points, days 26 and 27) | ED50 of anti-NMDA effect (NMDA receptor) | adverse effects at doses producing the anti-NMDA effect [2]
Cc1ccc2c(c1)c1c(n2CCc2ccc(C)nc2)CCN(C)C1 [Dimebon, 2,8-dimethyl-5-(2-(6-methyl-3-pyridyl)ethyl)-2,3,4,5-tetrahydro-1H-pyrido[4,3-b]indole dihydrochloride] | statistically significant | not statistically significant | statistically significant |  | 
NC(CCCP(=O)(O)O)C(=O)O (centres unmarked) [AP5, 2-amino-5-phosphonovaleric acid] |  |  |  | 190 mg/kg | neurotoxic effects
